Test results: ChEMBL document CHEMBL3988442, “University of Dundee, Small-Polar-MMV Screening Library” (2021)

Target: ClpP1P2 (Mycobacterium tuberculosis (strain ATCC 25618 / H37Rv), UniProt P9WPC3+P9WPC5)
Experiment: in vitro assay to detect presence of AMC directly proportional to the activity of ClpP1P2. GHDDI collaboration.
Format: functional

Sequence of ClpP1P2 (P9WPC5 whole entry): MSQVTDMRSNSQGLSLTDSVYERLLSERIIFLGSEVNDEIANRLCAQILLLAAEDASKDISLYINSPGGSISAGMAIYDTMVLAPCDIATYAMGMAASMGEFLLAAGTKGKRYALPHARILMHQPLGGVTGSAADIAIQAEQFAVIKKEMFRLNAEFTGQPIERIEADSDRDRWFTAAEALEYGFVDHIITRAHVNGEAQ
Sequence of ClpP1P2 (P9WPC3 whole entry): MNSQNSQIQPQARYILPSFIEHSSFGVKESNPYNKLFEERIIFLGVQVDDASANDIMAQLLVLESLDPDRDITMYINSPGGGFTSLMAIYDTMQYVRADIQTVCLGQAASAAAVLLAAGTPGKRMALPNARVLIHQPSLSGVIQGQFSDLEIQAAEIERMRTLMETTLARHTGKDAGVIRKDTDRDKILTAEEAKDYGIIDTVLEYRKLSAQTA

SMILES	IC50
Cc1cccc2nc(CN3CCCC3Cn3cccn3)cn12 (stereo not drawn)	> 100 µM
COc1ccc(C(=O)N(C)Cc2nnc3ccccn23)c(OC)c1OC	> 100 µM
COCc1ccccc1CNC(=O)CNc1ccccc1C(C)=O	> 100 µM
Cn1cnc(-c2nc(C(=O)NCC3CCCO3)c3ccccn23)c1 (stereo not drawn)	> 100 µM
Cc1nn(C)c(C)c1C1CCCN1C(=O)c1nccnc1N (stereo not drawn)	> 100 µM
CC(Cn1ccnc1)NC(=O)NCCc1cccs1 (stereo not drawn)	> 100 µM
Cc1cnn(CCNc2cnc3ccccc3n2)c1	> 100 µM
Cc1ccc(CN2CCC3(C2)C(=O)N(CC2CC2)c2ccccc23)s1 (stereo not drawn)	> 100 µM
CC(C)N1CCC(c2cc(C(F)(F)F)n3ccnc3n2)CC1	> 100 µM
c1cc2nc(C3CCNCC3)nn2cc1NC1CCC1	> 100 µM
Cc1cc(-c2cc(-c3cc(CC(=O)O)cs3)nc(N)c2C#N)oc1C	> 100 µM
COCCNC(=O)c1cc(-c2cc[nH]n2)n2ccccc12	> 100 µM
c1ncc2c(n1)CN(Cc1nc(-c3ccoc3)no1)CC2	> 100 µM
CN(Cc1ccsc1)C(=O)Nc1ccc(N2CCCC2)nc1	> 100 µM
CCn1c(C)nnc1CN(C)C1CCN(CCS(=O)(=O)CC)C1 (stereo not drawn)	> 100 µM
Cn1cc(CN2CCCCC2c2ccc(-c3cccc(F)c3)nc2)cn1 (stereo not drawn)	> 100 µM
Cc1ncc(CN2CCc3nc4cc(C(C)(C)C)nn4c(O)c3C2)n1C	> 100 µM
CC1Cn2c(nc3c2c(=O)[nH]c(=O)n3C)O1 (stereo not drawn)	> 100 µM
COCc1nnc(NC(=O)CN2C(=O)c3ccccc3NC2C(C)C)s1 (stereo not drawn)	> 100 µM
CCOc1ccccc1CC(=O)N1C[C@@H](C(=O)O)[C@H](c2ccncc2)C1	> 100 µM
COc1ccc(-c2cc3cccn(CC(=O)N4CCOCC4)c-3n2)cc1	> 100 µM
CC(c1ccccn1)N(C)Cc1cc2cc3c(cc2[nH]c1=O)OCO3 (stereo not drawn)	> 100 µM
COc1cc2ccccc2cc1C(=O)N1CCCC(c2nncn2C)C1 (stereo not drawn)	> 100 µM
Cc1ccc2nccc(C(=O)N3CCOC(CCN(C)C)C3)c2c1 (stereo not drawn)	> 100 µM
Cc1nc(C)n(CC2CCCN(CC(=O)N3CCCC3)C2)n1 (stereo not drawn)	> 100 µM

SMILES	IC50
Cc1nc(N2CCCC2)ccc1NCc1ccccn1	> 100 µM
COc1ccc2c(c1OC)Cc1c-2nc(N)c(C#N)c1C1CCOC1 (stereo not drawn)	> 100 µM
CC(C)n1c2ccccc2c2c1cc(C(=O)NC1CC1)n2C(=O)N(C)C	> 100 µM
Cc1n[nH]c(=O)c2c(NC(=O)CN3CCOC(C)C3)oc(C)c12 (stereo not drawn)	> 100 µM
CC(Cc1ccco1)NC(=O)Nc1ccc(N(C)C)nc1 (stereo not drawn)	> 100 µM
COCCN1CCc2cc(C(=O)NC(C)C)c(NCC(C)C)nc2CC1	> 100 µM
CN(Cc1ccccc1C#N)C1CCN(CCc2ccccn2)CC1	> 100 µM
CCN(CC)c1nc(C)cc(C(=O)Nc2cccc(C(N)=O)c2)n1	> 100 µM
Cc1noc(C2CCN(C(=O)CCc3nccs3)CC2)n1	> 100 µM
Cc1ccnc(NCCCN2CCc3ccccc32)n1	> 100 µM
Cc1sc2ncc(-c3ccnc(NC4CCN(C)CC4)n3)c(=O)n2c1C	> 100 µM
c1ccc(Cc2nnc(CN3CCc4cncnc4C3)o2)cc1	> 100 µM
CN(C)c1ccnc(-c2ccnc3c2ccn3C)n1	> 100 µM
CNCCN1C(=O)CC[C@H]2CN(c3cnc4ccccc4n3)CC[C@H]21	> 100 µM
Cc1cccc2c1NC1(CCCC1)NC2=O	> 100 µM
Cn1ccc2c(-c3cc(N4CCOCC4)ncn3)ccnc21	> 100 µM
CC(Cc1ccco1)NC(=O)Nc1ccc(N2CCCC2)nc1 (stereo not drawn)	> 100 µM
NC(=O)CC1CCCN(c2cncc(SCc3ccccc3)n2)C1 (stereo not drawn)	> 100 µM
COc1ccc(-c2ccnc3nc(N4CCCC4)[nH]c(=O)c23)cc1OC	> 100 µM
Cc1nc(C(=O)N(CC(=O)N(C)C)CC(F)(F)F)c2ccccn12	> 100 µM
O=C(c1cncc(NCC2COc3ccccc3C2)n1)N1CCCC1 (stereo not drawn)	> 100 µM
COc1cccc2ccc(N3CCC(O)(c4ccc(C)cn4)CC3)nc12	> 100 µM
CC(C)=CCN1CCc2onc(-c3ccc(F)c(F)c3)c2C1	> 100 µM
Cc1n[nH]c(=O)c2c(NC(=O)CN3CCCC(C(F)(F)F)C3)oc(C)c12 (stereo not drawn)	> 100 µM
c1cc(-c2nc(CN3CCc4c(ncn4C4CC4)C3)cs2)cs1	> 100 µM

SMILES	IC50
O=C(Cn1cccc2cc(-c3ccc(F)cc3)nc1-2)N1CCC(O)CC1	> 100 µM
Cc1cnn(CC(C)Nc2cnc3ccccc3n2)c1 (stereo not drawn)	> 100 µM
COCCCN1C(=O)CC[C@H]2CN(c3cnc4ccccc4n3)CC[C@H]21	> 100 µM
OCCNc1nc(NCCc2ccccc2)nc2nccnc12	> 100 µM
CCCOc1ccc(CNc2cncc(-n3cccn3)n2)cc1	> 100 µM
CCc1nc(CN2CCCC(NCc3nc(C)c(C)o3)C2)no1 (stereo not drawn)	> 100 µM
Cn1c(N)c2c(=O)n(C)c(-c3ccc(Cl)cc3Cl)cc2c(C#N)c1=O	> 100 µM
CCOc1ccc2[nH]c(=O)c(CN3CCC(O)CC3)cc2c1	> 100 µM
Cc1nc(-c2nc(C(=O)N3CCOCC3)c3ccccn23)cn1C(C)C	> 100 µM
CN(C)C1CCN(C(=O)c2cc(-c3ccn(C)n3)n3ccccc23)CC1	> 100 µM
COc1cccc(-n2nnc(C(=O)N3CCN(C)CC3C)c2C)c1 (stereo not drawn)	> 100 µM
COCC(C)N1CCc2onc(-c3ccc(C(F)(F)F)cc3)c2C1 (stereo not drawn)	> 100 µM
CN(C)C(=O)N1CCN(C(=O)c2ccn3cncc3c2)CC1	> 100 µM
Cc1ccc(-c2cc(-c3c(C)nn(CCO)c3C)c(C#N)c(N)n2)cc1	> 100 µM
COc1cc2c(cc1-c1nc3c(cnn3C(C)C)[nH]1)OCO2	> 100 µM
O=C(c1ccc2ccccc2n1)N1CCC2(CCN2c2ncccn2)C1 (stereo not drawn)	> 100 µM
CN(CCN1CCCCC1=O)Cc1cc2cc3c(cc2[nH]c1=O)OCO3	> 100 µM
CSc1nccn1-c1ccc(C(=O)NCC2CC2)cc1	> 100 µM
CCN(CC)c1ccc(NS(=O)(=O)c2cnn(CC)c2)cn1	> 100 µM
NC(=O)CCC1CCCN(c2ccc3ccc(F)cc3n2)C1 (stereo not drawn)	> 100 µM
CN(CC(=O)N1CCC(COc2ccccc2)CC1)c1cnccn1	> 100 µM
COCCN1CCC(CNc2cnc3ccccc3n2)CC1	> 100 µM
CN1CCN(c2nc(O)c3c(-c4ccccn4)ccnc3n2)CC1	> 100 µM
CN(C)c1nc2sc(C(=O)N3CCNC(=O)CC3)cc2s1	> 100 µM
c1ccc(CCCN2CCCC(Nc3cnc4ccccc4n3)C2)cc1 (stereo not drawn)	> 100 µM

SMILES	IC50
CCCn1cc(-c2cc(-c3c[nH]cn3)c(C#N)c(N)n2)c(C)n1	> 100 µM
CCc1ncc2c(n1)CN(CC(=O)Nc1nncs1)CC2	> 100 µM
CCOc1ccc2[nH]c(=O)c(CN3CCN(S(N)(=O)=O)CC3)cc2c1	> 100 µM
Cn1ccc2c(cnc3nc(-c4ccncc4)nn32)c1=O	> 100 µM
CNC(=O)c1cc2c(nc1NCC1CC1)CCN(CC1CC1)CC2	> 100 µM
N#Cc1ccnc(NCc2cc3n(n2)CCCN(C(=O)C2CCC2)C3)c1	> 100 µM
Cc1ccc(NC2CCN(C(=O)c3ccoc3C)CC2)nn1	> 100 µM
COC(=O)c1cc(OC)ccc1NCC(=O)NCC(=O)N1CCCC1	> 100 µM
Cc1nn(CCNc2ncnc3c2NC(=O)CN3)c(C)c1Cl	> 100 µM
CC(C)c1nnc(CNC2CCCN(Cc3noc(C4CC4)n3)C2)o1 (stereo not drawn)	> 100 µM
CN1CCc2c(C#N)c(NCc3ccncc3)n3cnnc3c2C1	> 100 µM
N#Cc1c(C2CC2)cc(-c2ccc(O)cc2)nc1N	> 100 µM
NC(=O)C1CCN(c2nc3nccc(-c4ccncc4)c3c(=O)[nH]2)CC1	> 100 µM
CC(C)C1CN(c2cccc(C#N)n2)CCCN1CC1CC1 (stereo not drawn)	> 100 µM
Cc1nc(CN(C)C2CCN(Cc3nc4ccccc4n3C)C2)no1 (stereo not drawn)	> 100 µM
CN(C)C1CCN(C(=O)Cc2csc(-c3ncccn3)n2)CC1	> 100 µM
Cc1ncc2c(n1)CN(Cc1nc(Cc3ccccc3)no1)CC2	> 100 µM
CCc1ncc2c(n1)CN(CC(=O)Nc1cccnc1)CC2	> 100 µM
Cc1ccc(CN2C[C@@H]3[C@@H](C(=O)N4CCCC4)CCS(=O)(=O)[C@@H]3C2)cc1	> 100 µM
COc1ccc2c(c1)C(=O)N(C)C1(CCN(CC3CC3)CC1)N2	> 100 µM
CC(C)c1nn(C)c(Cl)c1CNCC(=O)N1CCN(C)CC1	> 100 µM
O=C(NCCC(=O)N1CCCc2ccccc21)c1c(F)cccc1F	> 100 µM
COc1ccnc(N2CCN(C(=O)Cc3ccsc3)CC2)n1	> 100 µM
O=C(NCCC(=O)N1CCCc2ccccc21)c1ccc(F)cc1F	> 100 µM
COc1cc(OC)c2nc(NCCN3CCNC3=O)cc(C)c2c1	> 100 µM

SMILES	IC50
Cc1nc(-c2cc(C(=O)N3CCCN(C)CC3)c3ccccn23)cn1C	> 100 µM
CC(C)Oc1ccc(C(=O)N2CCC(Nc3cccnn3)CC2)cn1	> 100 µM
CCC1(CO)CCCN(c2ncccc2C#N)C1 (stereo not drawn)	> 100 µM
CCCNCc1ccc(-c2cc(N)nc3[nH]ccc23)cc1	> 100 µM
Cc1ccc(C(=O)NC2CCN(C(=O)NCc3ccccn3)CC2)o1	> 100 µM
Cc1cc(C)n(CCCNc2ncnc3c2NC(=O)CN3)n1	> 100 µM
CC(C)(C)c1ccc(OCC(=O)O)c(CN2C[C@H]3C[C@H](O)C[C@H]3C2)c1	> 100 µM
Cc1cnn(CC2CCCN2C(=O)CCc2ccncc2)c1 (stereo not drawn)	> 100 µM
Cc1cnn(CCNCc2csc(-c3ccsc3)n2)c1	> 100 µM
N#Cc1cccnc1N1CCC(OCc2ccccc2)CC1	> 100 µM
COc1cccc(-c2ccnc3nc(N4CCCCC4)[nH]c(=O)c23)c1	> 100 µM
Cc1cnn(CC2CN(Cc3nc4cccnc4[nH]3)CCO2)c1 (stereo not drawn)	> 100 µM
CCNc1ccnc(-c2ccnc3c2ccn3C)n1	> 100 µM
O=C(NCCCn1cccn1)NCC(c1ccco1)N1CCCC1 (stereo not drawn)	> 100 µM
CCNC(=O)c1c2c(N3CCN(C)CC3)ncnc2n2ccccc12	> 100 µM
Cc1oc(C)c(C(=O)N2CCN(Cc3cscn3)CC2)c1C	> 100 µM
Cn1c(CS(=O)(=O)c2ccc(Cl)cc2)cc(=O)n(C)c1=O	> 100 µM
O=C(c1cnn2c(-c3ccco3)ccnc12)N1CCCCCC1	> 100 µM
N#Cc1ccc(F)c(CN2CCNC(=O)C2c2cccs2)c1 (stereo not drawn)	> 100 µM
Cc1ccc(CNC(=O)NC(C)Cn2cccn2)cn1 (stereo not drawn)	> 100 µM
CC(C)Nc1nc2c(c(NC3CC3)n1)CN(C(=O)c1ccsc1)CC2	> 100 µM
Cc1nc(-c2cc(C(=O)NCCN3CCOCC3)c3ccccn23)cs1	> 100 µM
CCN(CC1CCOC1)C(=O)Nc1ccc(OC)nc1 (stereo not drawn)	> 100 µM
